# Measured values published in ChEMBL document CHEMBL1909046, “DrugMatrix in vitro pharmacology data”.
# Tests used:
# [1] = DRUGMATRIX: GABAA, Chloride Channel, TBOB radioligand binding (ligand: [3H] TBOB); assay type: cell membranes, Rattus norvegicus, Wistar, Cerebral cortex, Membrane; details: Not Active = under 50% inhibition at 10 µM
# [2] = DRUGMATRIX: Calcium Channel Type L, Dihydropyridine radioligand binding (ligand: [3H] Nitrendipine); assay type: cell membranes, Rattus norvegicus, Wistar, Cerebral cortex, Membrane; details: Not Active = under 50% inhibition at 10 µM
# [3] = biological target: D(1A) dopamine receptor (Homo sapiens, UniProt P21728); test: DRUGMATRIX: Dopamine D1 radioligand binding (ligand: [3H] SCH-23390); assay type: cell membranes, CHO, Membrane; details: cho; Not Active = under 50% inhibition at 10 µM
# [4] = DRUGMATRIX: Purinergic P2X radioligand binding (ligand: [3H] alpha, beta-Methylene-ATP); assay type: cell membranes, Oryctolagus cuniculus, New Zealand albino, Urinary bladder, Membrane; details: Not Active = under 50% inhibition at 10 µM
# [5] = DRUGMATRIX: beta-Lactamase enzyme inhibition (substrate: Nitrocefin); set-up: species or system Bacillus cereus; details: Not Active = under 50% inhibition at 10 µM
# [6] = DRUGMATRIX: GABAA, Flunitrazepam, Central radioligand binding (ligand: [3H] Flunitrazepam); assay type: cell membranes, Rattus norvegicus, Wistar, Brain, Membrane; details: Not Active = under 50% inhibition at 10 µM
# [7] = DRUGMATRIX: Glutamate, NMDA, Phencyclidine radioligand binding (ligand: [3H] TCP); assay type: cell membranes, Rattus norvegicus, Wistar, Cerebral cortex, Membrane; details: Not Active = under 50% inhibition at 10 µM
# [8] = DRUGMATRIX: Imidazoline I2, Central radioligand binding (ligand: [3H] Idazoxan); assay type: cell membranes, Rattus norvegicus, Wistar, Cerebral cortex, Membrane; details: Not Active = under 50% inhibition at 10 µM
# D(1A) dopamine receptor, sequence (P21728 whole entry): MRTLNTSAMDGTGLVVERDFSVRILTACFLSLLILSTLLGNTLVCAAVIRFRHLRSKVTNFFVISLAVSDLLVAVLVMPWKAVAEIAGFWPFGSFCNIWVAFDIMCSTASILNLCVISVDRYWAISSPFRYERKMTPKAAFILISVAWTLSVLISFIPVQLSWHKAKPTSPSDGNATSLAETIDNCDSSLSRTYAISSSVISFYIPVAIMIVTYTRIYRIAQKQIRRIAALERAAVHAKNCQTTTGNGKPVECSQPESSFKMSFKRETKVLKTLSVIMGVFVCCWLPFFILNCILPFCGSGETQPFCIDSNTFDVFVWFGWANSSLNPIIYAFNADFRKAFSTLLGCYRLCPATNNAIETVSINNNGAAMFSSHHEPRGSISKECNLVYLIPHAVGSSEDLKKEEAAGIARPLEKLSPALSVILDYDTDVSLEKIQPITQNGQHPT
Molecule,IC50 [1],Ki [1],IC50 [2],Ki [2],IC50 [3],IC50 [4],Ki [4],IC50 [5],Ki [5],IC50 [6],Ki [6],IC50 [7],Ki [7],IC50 ([8]; read-out: IC50) [nM],Ki ([8]; read-out: Ki) [nM],IC50 [8],Ki [8],IC50 ([2]; read-out: IC50) [nM],Ki ([2]; read-out: Ki) [nM],Ki [3]
CC1CCC(NC(=O)N(CCCl)N=O)CC1 (configuration not stated) [SEMUSTINE],Not Active,Not Active,Not Active,Not Active,Not Active,Not Active,Not Active,Not Active,Not Active,Not Active,Not Active,Not Active,Not Active,1620,1080,,,,,
O=C1C[C@@H]2OCC=C3CN4CC[C@]56c7ccccc7N1[C@H]5[C@H]2[C@H]3C[C@H]46 [STRYCHNINE],Not Active,Not Active,Not Active,Not Active,Not Active,Not Active,Not Active,Not Active,Not Active,Not Active,Not Active,Not Active,Not Active,,,Not Active,Not Active,,,
CC(=N)S [THIOACETAMIDE],Not Active,Not Active,Not Active,Not Active,Not Active,Not Active,Not Active,Not Active,Not Active,Not Active,Not Active,Not Active,Not Active,,,Not Active,Not Active,,,
COC(=O)[C@H]1[C@H]2C[C@@H]3c4[nH]c5cc(OC)ccc5c4CCN3C[C@H]2C[C@@H](OC(=O)c2cc(OC)c(OC)c(OC)c2)[C@@H]1OC [RESERPINE],Not Active,Not Active,,,Not Active,Not Active,Not Active,Not Active,Not Active,Not Active,Not Active,Not Active,Not Active,,,Not Active,Not Active,821,528,
O=c1[nH]c(=O)n(C2CCCO2)cc1F (configuration not stated) [TEGAFUR],Not Active,Not Active,Not Active,Not Active,Not Active,Not Active,Not Active,Not Active,Not Active,Not Active,Not Active,Not Active,Not Active,,,Not Active,Not Active,,,
C[N+](C)(C)CCOC(=O)CCC(=O)OCC[N+](C)(C)C.[Cl-].[Cl-] [SUCCINYLCHOLINE CHLORIDE],Not Active,Not Active,Not Active,Not Active,Not Active,Not Active,Not Active,Not Active,Not Active,Not Active,Not Active,Not Active,Not Active,,,Not Active,Not Active,,,
CCCCC(=O)N(Cc1ccc(-c2ccccc2-c2nnn[nH]2)cc1)[C@H](C(=O)O)C(C)C,Not Active,Not Active,Not Active,Not Active,Not Active,Not Active,Not Active,Not Active,Not Active,Not Active,Not Active,Not Active,Not Active,,,Not Active,Not Active,,,
O=C(O)c1ccccc1O [SALICYLIC ACID],Not Active,Not Active,Not Active,Not Active,Not Active,Not Active,Not Active,Not Active,Not Active,Not Active,Not Active,Not Active,Not Active,,,Not Active,Not Active,,,
Nc1ccc(S(=O)(=O)NC(=O)c2ccccc2)cc1 [SULFABENZAMIDE],Not Active,Not Active,Not Active,Not Active,Not Active,Not Active,Not Active,Not Active,Not Active,Not Active,Not Active,Not Active,Not Active,,,Not Active,Not Active,,,
C[C@@](Cc1ccc(O)c(O)c1)(NN)C(=O)O.O [CARBIDOPA],Not Active,Not Active,Not Active,Not Active,Not Active,Not Active,Not Active,Not Active,Not Active,Not Active,Not Active,Not Active,Not Active,,,Not Active,Not Active,,,
CCCCCCCCNC(C)C(O)c1ccc(SC(C)C)cc1 (configuration not stated) [SULOCTIDIL],Not Active,Not Active,,,Not Active,Not Active,Not Active,Not Active,Not Active,Not Active,Not Active,Not Active,Not Active,,,Not Active,Not Active,260,167,
CN1CCN(CCCN2c3ccccc3Sc3ccc(C(F)(F)F)cc32)CC1 [TRIFLUOPERAZINE],Not Active,Not Active,Not Active,Not Active,Not Active,Not Active,Not Active,Not Active,Not Active,Not Active,Not Active,Not Active,Not Active,,,Not Active,Not Active,,,
C[C@]12C=CC(=O)C=C1CC[C@@H]1[C@@H]2C(=O)C[C@@]2(C)[C@H]1CC[C@]2(O)C(=O)CO [PREDNISONE],Not Active,Not Active,Not Active,Not Active,Not Active,Not Active,Not Active,Not Active,Not Active,Not Active,Not Active,Not Active,Not Active,,,Not Active,Not Active,,,
"O=C(O)CCCCC1CCSS1 (stereo not drawn) [LIPOIC ACID, ALPHA]",Not Active,Not Active,Not Active,Not Active,Not Active,Not Active,Not Active,Not Active,Not Active,Not Active,Not Active,Not Active,Not Active,,,Not Active,Not Active,,,
Cc1ccc(C(=O)c2ccc(CC(=O)O)n2C)cc1 [TOLMETIN],Not Active,Not Active,Not Active,Not Active,Not Active,Not Active,Not Active,Not Active,Not Active,Not Active,Not Active,Not Active,Not Active,,,Not Active,Not Active,,,
CC(=O)OCC(COC(C)=O)OC(C)=O [TRIACETIN],Not Active,Not Active,Not Active,Not Active,Not Active,Not Active,Not Active,Not Active,Not Active,Not Active,Not Active,Not Active,Not Active,,,Not Active,Not Active,,,
TRANSPLATIN,Not Active,Not Active,Not Active,Not Active,Not Active,Not Active,Not Active,Not Active,Not Active,Not Active,Not Active,Not Active,Not Active,,,Not Active,Not Active,,,Not Active
O=C(O)COc1ccc(C(=O)c2cccs2)c(Cl)c1Cl,Not Active,Not Active,Not Active,Not Active,Not Active,Not Active,Not Active,Not Active,Not Active,Not Active,Not Active,Not Active,Not Active,,,Not Active,Not Active,,,
ZIRCONIUM(IV) CHLORIDE,Not Active,Not Active,Not Active,Not Active,Not Active,Not Active,Not Active,Not Active,Not Active,Not Active,Not Active,Not Active,Not Active,,,Not Active,Not Active,,,Not Active
